For series [1] the following is noted: at 37° C.; cited from earlier work.
Series [2] can be described thus: Oral administration of drug compositions to rats, blood (plasma) drug concentration by HPLC and AUC. The series is classed as in vivo, wistar rats. The note with it: average of five rats. How it is done:
As test animals, 9-week-old male clean wistar rats (five rats for each of drug compositions A to F) were used. […] After the administration, blood was collected from the neck vein of each clean wistar rat at predetermined time intervals and was centrifuged (10000 rpm, 5 min) to obtain plasma. Four hundred microliters of methanol was added to 100 μL of the obtained plasma, and the mixture was mixed for 1 minute with a vortex mixer and was centrifuged (10000 rpm, 5 min). […] One hundred microliters of ethanol was added to the resulting dried substance, and the blood drug concentration was measured using a UV detector (JASCO PU-970) of HPLC (JASCO PU-980). […] Based on the thus-measured blood drug concentrations of the drug compositions, concentration changes with passage of time and areas under blood drug concentration-time curves (AUC) were studied. […] Note that the values of AUC and blood drug concentration in Table 1 and FIGS. 1 to 6 are averages in the five clean wistar rats administered with each of the drug compositions A to F, and “SE” means standard error.

The conditions of series [3]: cited from earlier work.

SMILES strings stand for the structures.

Consider `CC(C(=O)O)c1ccc(-c2ccccc2)c(F)c1` (centres unmarked) [flurbiprofen], for which the “solubility in neutral water” value in series [1] is reported as 25 μg/mL water. Also, the “AUC (area under flurbiprofen plasma concentration-time curve)” value in series [2] (flurbiprofen (FP), dose 2 mg/kg) was determined as 22060 ng·h/mL.
On to `CC(C)(Sc1cc(C(C)(C)C)c(O)c(C(C)(C)C)c1)Sc1cc(C(C)(C)C)c(O)c(C(C)(C)C)c1` [probucol], for which the bioavailability to human entry in series [3] is “about 5%”. In series [1], the “solubility in neutral water” value is 3 to 5 ng/mL water. Besides, in series [2] (probucol (PRO), dose 200 mg/kg), the “AUC (area under probucol plasma concentration-time curve)” value came out at 4940 ng·h/mL.

The values are drawn from patent US20110189311A1, “Highly Absorbable Drug Composition and Method of Producing the Same” (TOYO SUGAR REFINING CO., LTD., priority 2009, published 2011).
